The text below walks through data of patent publication US9956211B2, “Pharmaceutical compositions comprising a local anaesthetic such as bupivacaine for local administration to the mouth or throat” (MOBERG PHARMA AB, priority 2011, dated 2018).

Where two headings read alike, the source gives them in different places.

The conditions of data set [1]: cited from earlier work.
Data set [2] in a line: Study I: single dose kinetics of compressed bupivacaine lozenge. The format is in vivo, human. How it is done:
Bupivacaine has not been used as local oral administration before.
The purpose of this study is to investigate the pharmacokinetics of bupivacaine after topical oral administration. The plasma concentration of bupivacaine is measured after absorption over an intact oral mucosa after administration of a compressed lozenge containing respectively 5, 10, 25 and 50 mg bupivacaine as a single dose and 25 mg as multiple doses.
(§1) These are prospective, descriptive studies. The subjects were ten healthy young males. Samples of full blood were taken in lithium-heparin pipes for anticoagulant effect. After the blood sample is collected it is centrifuged at 2500 rounds per minute for 15 minutes at 4° C. Approximately 1 ml plasma is taken from the sample and put into vials and right away put into a −80° C. freezer, where it is kept until analysis.
The aim of the study was to investigate the pharmacokinetics of bupivacaine by topical oral administration. The concentration of bupivacaine was measured in the blood after absorption from an intact oral mucosa after administration of a compressed lozenge containing respectively 5, 10 or 25 mg of bupivacaine. On study days 1, 2, 3 and 4 (interspersed with single wash-out days) the subjects were given one 5 mg lozenge, one 10 mg lozenge, one 25 mg lozenge or two 25 mg lozenges, respectively.
Before the study began, the subjects drank 250 ml water to remove any traces of coffee, cola or other potential absorption enhancers. After 10 minutes a compressed lozenge was administered. […] A baseline blood sample was taken, the lozenge was administered and then blood samples were taken at 0 min (i.e. when the lozenge has completely dissolved in the mouth, 15 min, 30 min, 45 min, 60 min, 75 min, 90 min, 105 min, 120 min, 150 min, 180 min, 210 min, 240 min, 270 min, 300 min, 330 min and 360 min.

Data set [3] in a line: Study II: multiple doses kinetics. It is filed as in vivo, human. The note with it: 25 mg lozenge four times a day, 72 hours. The procedure:
as §1
The multiple doses study was conducted over 72 hours consecutively, where the subjects were administrated a lozenge containing 25 mg of bupivacaine four times a day in the awake hours.
The aim of the study was to measure the concentration of bupivacaine in the blood after absorption from an intact oral mucosa after administration of a lozenge containing 25 mg of bupivacaine given four times a day. […] Therefore the lozenges were administered at 8 am, […], 6 pm and 10 pm, to give a total daily dose of 100 mg bupivacaine.
The subjects drank 250 ml water to remove any traces of coffee, cola or other potential absorption enhancers. After 10 minutes a compressed lozenge was administered.

The nature of data set [4]: Study VII: single dose kinetics, fasting. It is filed as in vivo, human. The note with it: 25 mg compressed lozenge, fasting vs not fasting. The procedure: The single dose kinetics was conducted over 10 hours. The subjects had been fasting from 12 pm the night before the study began. The subjects were administrated a compressed lozenge containing 25 mg of bupivacaine. The blood collection began at approximately 7 am.
In our previous results we have seen an extra peak. The aim of this study was to investigate if the extra peak was from gastrointestinal absorption.
Baseline blood sample. Administration of lozenge. Blood sample at the following times: 0 min, 15 min, 30 min, 45 min, 60 min, 75 min, 90 min, 105 min, 120 min, 150 min, 180 min, 210 min, 240 min, 300 min, 360 min, 420 min, 480 min, 540 min and 600 min. (Time 0 minutes is when the lozenge is completely dissolved in the mouth.)

Data set [5] in a line: Pilot study Aarhus: kinetics, non-intact mucosa. It is filed as in vivo, human. The note with it: 25 mg lozenge, three head or neck cancer patients, stage 3 mucositis, non-intact oral mucosa. The procedure: The study was conducted over 2-3 hours on three patients from Aarhus University hospital. The patients were suffering from head or neck cancer with stage 3 mucositis with a non-intact oral mucosa. The aim of the study was to investigate the pharmacokinetics of bupivacaine by topical oral administration of a 25 mg lozenge. A baseline blood sample was taken, followed by administration of the lozenge, and then blood samples were taken at 0 min (i.e. when the lozenge is completely dissolved in the mouth), 15 min, 30 min, 45 min, 60 min, 75 min, 90 min, 105 min, 120 min, 150 min and 180 min.

Data set [6] is described as follows: Activity after heating during the casting process. Particulars: heated at up to 180° C. during the casting process. It is filed as physicochemical.
The conditions of data set [7]: plasma concentration; cited from earlier work.
For data set [8] the following is noted: safety pharmacology, single and repeated dose toxicity, reproduction toxicity, mutagenic potential, local toxicity; cited from earlier work.
The mark [9] stands for this setting: standard aqueous medium, pH7.4, 25° C.

Take `CCOC(=O)c1ccc(N)cc1` [benzocaine]: the octanol/water partition coefficient in data set [1] (setting [9]) is 81.
Regarding `CCCCN1CCCCC1C(=O)Nc1c(C)cccc1C` (stereo not drawn) [bupivacaine, 1-butyl-N-(2,6-dimethylphenyl)piperidine-2-carboxamide], the discomfort entry in data set [2] (5 mg and 10 mg compressed lozenge) is recorded as “none of them felt any discomfort”; in data set [2] (50 mg (two 25 mg lozenges)), “discomfort was further increased”. For the same compound, in data set [2] (5 mg and 10 mg compressed lozenge, healthy subjects), the anesthetic effect felt result is reported as “felt the anesthetic effect”. Also, the “discomfort, especially in the pharynx” value in data set [2] (25 mg compressed lozenge) is given as “some of the subjects felt discomfort”. In addition, the side effects result in data set [2] (5, 10, 25 and 50 mg single doses) is given as “None of the subjects experienced any side effects”. The “maximum bupivacaine plasma concentration” value in data set [2] (maximum dosage 50 mg (two 25 mg compressed lozenges), single dose, intact oral mucosa, healthy subjects) is listed as “less than 600 ng/ml”. Also, the “accumulation in the body” value in data set [3] was “not being accumulated in the body”. The peak plasma concentrations entry in data set [3] is “lower than the toxic level”. Moreover, in data set [4], the “influence of fasting on plasma level” value is reported as “did not influence the results”. The “maximum plasma concentration of bupivacaine” value in data set [5] was “below 700 ng/ml”. In addition, the activity after heating result in data set [6] was “retains full activity”. Also, in data set [7], the “toxic level in man” value was 2 to 4 µg/mL. Further, the “risks for humans from preclinical safety data” value in data set [8] is recorded as “no special risks for humans”. In data set [1] (setting [9]), the octanol/water partition coefficient was 346.
With `CCCN(CC)C(CC)C(=O)Nc1c(C)cccc1C` (stereo not drawn) [etidocaine], the octanol/water partition coefficient in data set [1] (setting [9]) is reported as 800.
On to `CCCN1CCCC[C@H]1C(=O)Nc1c(C)cccc1C` [ropivacaine], for which the octanol/water partition coefficient in data set [1] (setting [9]) is recorded as 115.
In the case of levobupivacaine, the octanol/water partition coefficient in data set [1] (pH 7.4) was 346.
